Each molecule was assayed against CDC7/DBF4 (Cell division cycle 7-related protein kinase/Activator of S phase kinase) (Homo sapiens, UniProt O00311) (assay: Biochemical Assay: Biochemical assay was tested in the U-shaped bottom 384 plate (corning, #4514) with a final volume of […] at 27° C. The concentration of CDC7 was optimized by the enzyme titration experiment. CDC7 kinase was diluted in assay buffer (40 mM Tris.HCl pH 7.25, 100 ug/mL BSA, and 20 mM MgCl2) to get 2.4× enzyme solutions. Compounds were dissolved in 10 mM DMSO, and series diluted in DMSO from 0.3 mM to 0.3 nM (5 concentration pts); All dilutions were diluted 30× in assay buffer to get 6× compounds solutions. MCM2 Substrate and ATP were diluted to 2.4× mixed solution. Add 2 ul test compound solution to 384 assay plate, then add 5 ul substrate/ATP mixed solution, at last add 5 ul enzyme solution, incubate at 27° C. for 180 mins. Transfer 5 ul reaction solution to another 384 assay plate, then add 5 ul ADP-Glo™ Reagent (Promega) to each well and incubate at 27° C. for 40 mins; Add 10 ul Kinase Detection Reagent (Promega) to each well and incubate at 27° C. for 30 mins. 10 uM CDC7-3 compound was used as 100% inhibition while 100% DMSO control was used as 0% inhibition. Each test has three replications at least.).
Type: protein-complex assay

CDC7/DBF4 (Cell division cycle 7-related protein kinase/Activator of S phase kinase), sequence (Q9UBU7 whole entry): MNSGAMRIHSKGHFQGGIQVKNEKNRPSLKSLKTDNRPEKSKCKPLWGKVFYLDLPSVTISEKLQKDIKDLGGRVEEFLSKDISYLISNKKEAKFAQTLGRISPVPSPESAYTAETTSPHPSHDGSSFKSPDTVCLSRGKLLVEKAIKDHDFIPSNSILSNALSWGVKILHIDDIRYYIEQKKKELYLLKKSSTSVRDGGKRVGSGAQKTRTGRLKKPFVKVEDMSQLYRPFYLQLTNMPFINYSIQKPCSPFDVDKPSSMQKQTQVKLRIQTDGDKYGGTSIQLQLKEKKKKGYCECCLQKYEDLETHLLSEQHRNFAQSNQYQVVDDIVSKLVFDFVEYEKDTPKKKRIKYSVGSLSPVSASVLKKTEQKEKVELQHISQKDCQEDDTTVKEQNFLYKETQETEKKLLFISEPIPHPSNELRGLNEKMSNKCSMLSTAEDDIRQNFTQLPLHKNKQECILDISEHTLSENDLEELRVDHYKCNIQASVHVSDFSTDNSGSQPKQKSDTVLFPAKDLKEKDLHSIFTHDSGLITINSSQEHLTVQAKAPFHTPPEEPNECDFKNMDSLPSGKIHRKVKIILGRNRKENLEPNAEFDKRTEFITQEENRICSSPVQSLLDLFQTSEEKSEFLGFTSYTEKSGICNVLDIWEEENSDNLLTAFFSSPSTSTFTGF
CDC7/DBF4 (Cell division cycle 7-related protein kinase/Activator of S phase kinase), sequence (O00311 whole entry): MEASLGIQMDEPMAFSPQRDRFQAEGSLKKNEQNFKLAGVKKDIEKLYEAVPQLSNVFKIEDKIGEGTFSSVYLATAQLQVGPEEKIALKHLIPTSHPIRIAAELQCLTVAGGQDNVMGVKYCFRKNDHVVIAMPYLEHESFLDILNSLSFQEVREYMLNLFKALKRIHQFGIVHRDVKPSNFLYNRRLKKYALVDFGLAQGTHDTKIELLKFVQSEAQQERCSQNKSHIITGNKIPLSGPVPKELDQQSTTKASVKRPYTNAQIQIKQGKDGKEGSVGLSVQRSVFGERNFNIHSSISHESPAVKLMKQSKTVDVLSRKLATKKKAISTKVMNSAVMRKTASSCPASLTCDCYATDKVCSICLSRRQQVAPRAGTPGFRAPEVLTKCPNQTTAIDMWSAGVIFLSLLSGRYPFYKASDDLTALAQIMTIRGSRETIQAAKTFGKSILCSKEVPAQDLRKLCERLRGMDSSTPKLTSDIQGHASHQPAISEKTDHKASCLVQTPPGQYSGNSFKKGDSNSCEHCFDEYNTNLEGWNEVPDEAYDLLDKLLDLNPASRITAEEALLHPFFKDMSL

| IC50 [nM] | SMILES |
| --- | --- |
| < 1000 | CC(C)[C@H](N)c1nc2cc(-c3ccnc(Cl)c3)sc2c(=O)[nH]1 |
| < 1000 | Cc1cc(-c2cc3nc([C@@H](N)C(C)C)[nH]c(=O)c3s2)ccn1 |
| < 1000 | CC[C@H](N)c1nc2cc(-c3ccnc(F)c3)sc2c(=O)[nH]1 |
| < 10000 | CN[C@H](c1nc2cc(-c3ccnc(F)c3)sc2c(=O)[nH]1)C(C)C |

From ChEMBL document CHEMBL5727915, “Substituted [5,6]cyclic-4(3H)-pyrimidinones as anticancer agents” (2020)
